Results: ChEMBL document CHEMBL3751700, “Therapeutic Potential of GPR120 Agonists for the Treatment of Type 2 Diabetes” (ACS Med Chem Lett, 2015)

Key:
[1] = Agonist activity at human GPR120 short isoform transfected in CHO-K1 cells by beta-arrestin recruitment assay; assay type: cell-based
[2] = Agonist activity at human GPR120 long isoform transfected in HEK293 cells assessed as calcium flux by FLIPR assay; assay type: cell-based
[3] = Agonist activity at human GPR120 long isoform transfected in CHO-K1 cells by beta-arrestin recruitment assay; assay type: cell-based
[4] = system: Mus musculus; assay: Antidiabetic activity in DIO mouse assessed as glucose level at 10 mg/kg measured from -30 to 90 mins by oral glucose tolerance test; assay type: functional
[5] = system: Mus musculus; assay: Antidiabetic activity in C57bl6 mouse assessed as glucose level at 3 mg/kg by intraperitoneal glucose tolerance test; assay type: functional
[6] = system: Mus musculus; assay: Antidiabetic activity in C57bl6 mouse assessed as glucose level at 3 mg/kg by oral glucose tolerance test; assay type: functional
[7] = system: Mus musculus; assay: Antidiabetic activity in C57bl6 mouse assessed as glucose level at 30 mg/kg by intraperitoneal glucose tolerance test; assay type: functional
[8] = system: Mus musculus; assay: Antidiabetic activity in C57bl6 mouse assessed as glucose level at 10 mg/kg by intraperitoneal glucose tolerance test; assay type: functional
[9] = Agonist activity at human GPR120 short isoform transfected in HEK293 cells assessed as calcium flux by FLIPR assay; assay type: cell-based

SMILES	EC50 [1] [nM]	EC50 [2] [nM]	EC50 [3] [nM]	EC50 [9] [nM]	Activity [4] [%]	Activity [5] [%]	Activity [6] [%]	Activity [7] [%]	Activity [8] [%]
Cc1ccccc1-c1snc(Cl)c1COc1c(F)cc(CCC(=O)O)cc1F	990	344	322						
O=C(O)CCc1cc(F)c(OCc2c(C3CCCC3)nsc2C(F)(F)F)c(F)c1	139	37	278		-0.52	-14	-37		

Further compounds by falling EC50 [1], results first:

EC50 [1] [nM]	EC50 [2] [nM]	EC50 [3] [nM]	EC50 [9] [nM]	SMILES	Activity [4] [%]	Activity [5] [%]	Activity [6] [%]	Activity [7] [%]	Activity [8] [%]
205	24	218		CCc1ccc(-c2cc(F)sc2COc2ccc(CCC(=O)O)c(C)c2C)cc1					
100	155	141		Cc1c(CCC(=O)O)ccc(OCc2c(-c3ccc(Cl)cc3)nsc2C(F)(F)F)c1C		-34		-53	-61
83	49			Cc1c(CCC(=O)O)ccc(OCc2sc(F)cc2-c2ccc(Cl)cc2)c1C					
80			139	OCCCc1cc(F)c(OCc2c(-c3ccc(Cl)cc3F)nsc2C(F)(F)F)c(F)c1					
